How the values were obtained:
Assay in all cases: biochemical
Design in all cases: DiscoverX kinase panel, active-site competition binding (KINOMEscan type), percent of control at one concentration
Details in all cases: competition binding, percent of control
AXL = AXL (Homo sapiens, UniProt P30530)
CAMK2G = CAMK2G (Homo sapiens, UniProt Q13555)
CDK9 = CDK9 (Homo sapiens, UniProt P50750)
DCAMKL1 = biological target: T1, DCAMKL1 (Homo sapiens, UniProt O15075)
T1 construct: gene DCLK1

EGFR(L858R) = EGFR(L858R) (Homo sapiens, UniProt P00533, L858R)
Chain of EGFR(L858R) (P00533 whole entry L858R): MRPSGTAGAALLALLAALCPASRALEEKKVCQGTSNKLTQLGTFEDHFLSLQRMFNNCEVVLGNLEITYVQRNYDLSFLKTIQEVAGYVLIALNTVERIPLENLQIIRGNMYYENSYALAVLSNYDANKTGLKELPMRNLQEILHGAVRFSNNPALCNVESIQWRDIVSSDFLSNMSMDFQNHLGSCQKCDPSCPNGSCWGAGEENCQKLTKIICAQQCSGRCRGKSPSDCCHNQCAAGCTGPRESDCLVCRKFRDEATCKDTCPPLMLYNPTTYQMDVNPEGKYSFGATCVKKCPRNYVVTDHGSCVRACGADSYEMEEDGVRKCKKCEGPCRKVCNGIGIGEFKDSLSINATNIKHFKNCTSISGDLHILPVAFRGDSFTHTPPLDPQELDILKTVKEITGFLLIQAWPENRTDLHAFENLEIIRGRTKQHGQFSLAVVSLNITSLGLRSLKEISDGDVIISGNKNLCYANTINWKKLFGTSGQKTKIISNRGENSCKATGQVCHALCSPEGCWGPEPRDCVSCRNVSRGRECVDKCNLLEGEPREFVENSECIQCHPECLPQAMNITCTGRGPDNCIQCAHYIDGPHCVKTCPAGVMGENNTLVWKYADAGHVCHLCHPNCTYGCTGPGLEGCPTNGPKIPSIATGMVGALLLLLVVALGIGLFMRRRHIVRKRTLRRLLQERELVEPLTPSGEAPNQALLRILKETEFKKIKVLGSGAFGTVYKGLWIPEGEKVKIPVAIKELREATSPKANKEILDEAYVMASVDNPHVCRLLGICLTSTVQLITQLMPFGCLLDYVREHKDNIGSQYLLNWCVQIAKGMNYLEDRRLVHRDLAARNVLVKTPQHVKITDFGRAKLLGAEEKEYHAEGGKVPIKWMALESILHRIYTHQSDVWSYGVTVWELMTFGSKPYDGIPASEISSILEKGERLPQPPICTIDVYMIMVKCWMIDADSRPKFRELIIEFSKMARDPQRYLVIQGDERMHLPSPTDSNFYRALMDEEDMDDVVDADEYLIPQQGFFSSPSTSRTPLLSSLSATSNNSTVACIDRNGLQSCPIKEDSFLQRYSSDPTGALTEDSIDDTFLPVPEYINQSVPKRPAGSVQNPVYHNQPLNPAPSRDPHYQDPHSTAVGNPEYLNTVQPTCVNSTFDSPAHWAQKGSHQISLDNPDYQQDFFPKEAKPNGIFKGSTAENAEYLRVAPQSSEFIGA

EPHA4 = EPHA4 (Homo sapiens, UniProt P54764)
ERBB3 = ERBB3 (Homo sapiens, UniProt P21860)
HASPIN = HASPIN (Homo sapiens, UniProt Q8TF76)
MET = MET (Homo sapiens, UniProt P08581)
MKK7 = biological target: T2, MKK7 (Homo sapiens, UniProt O14733)
T2 construct: gene MAP2K7
T2 sequence (O14733 whole entry): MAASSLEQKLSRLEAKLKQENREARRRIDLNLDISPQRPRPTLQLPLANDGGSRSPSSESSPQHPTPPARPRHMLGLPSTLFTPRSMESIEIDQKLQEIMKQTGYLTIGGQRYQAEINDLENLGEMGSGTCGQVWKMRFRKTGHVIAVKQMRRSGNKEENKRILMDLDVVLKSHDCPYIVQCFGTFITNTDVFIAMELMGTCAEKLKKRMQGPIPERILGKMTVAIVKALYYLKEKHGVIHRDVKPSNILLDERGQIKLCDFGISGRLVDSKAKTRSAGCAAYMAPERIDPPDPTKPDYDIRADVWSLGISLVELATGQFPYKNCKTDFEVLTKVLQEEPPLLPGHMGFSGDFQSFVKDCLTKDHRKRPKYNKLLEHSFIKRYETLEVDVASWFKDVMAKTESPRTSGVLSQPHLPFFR

MLK2 = biological target: T3, MLK2 (Homo sapiens, UniProt Q02779)
T3 construct: gene MAP3K10

PDGFRA = PDGFRA (Homo sapiens, UniProt P16234)
PIK3C2B = PIK3C2B (Homo sapiens, UniProt O00750)
Chain of PIK3C2B (O00750 whole entry): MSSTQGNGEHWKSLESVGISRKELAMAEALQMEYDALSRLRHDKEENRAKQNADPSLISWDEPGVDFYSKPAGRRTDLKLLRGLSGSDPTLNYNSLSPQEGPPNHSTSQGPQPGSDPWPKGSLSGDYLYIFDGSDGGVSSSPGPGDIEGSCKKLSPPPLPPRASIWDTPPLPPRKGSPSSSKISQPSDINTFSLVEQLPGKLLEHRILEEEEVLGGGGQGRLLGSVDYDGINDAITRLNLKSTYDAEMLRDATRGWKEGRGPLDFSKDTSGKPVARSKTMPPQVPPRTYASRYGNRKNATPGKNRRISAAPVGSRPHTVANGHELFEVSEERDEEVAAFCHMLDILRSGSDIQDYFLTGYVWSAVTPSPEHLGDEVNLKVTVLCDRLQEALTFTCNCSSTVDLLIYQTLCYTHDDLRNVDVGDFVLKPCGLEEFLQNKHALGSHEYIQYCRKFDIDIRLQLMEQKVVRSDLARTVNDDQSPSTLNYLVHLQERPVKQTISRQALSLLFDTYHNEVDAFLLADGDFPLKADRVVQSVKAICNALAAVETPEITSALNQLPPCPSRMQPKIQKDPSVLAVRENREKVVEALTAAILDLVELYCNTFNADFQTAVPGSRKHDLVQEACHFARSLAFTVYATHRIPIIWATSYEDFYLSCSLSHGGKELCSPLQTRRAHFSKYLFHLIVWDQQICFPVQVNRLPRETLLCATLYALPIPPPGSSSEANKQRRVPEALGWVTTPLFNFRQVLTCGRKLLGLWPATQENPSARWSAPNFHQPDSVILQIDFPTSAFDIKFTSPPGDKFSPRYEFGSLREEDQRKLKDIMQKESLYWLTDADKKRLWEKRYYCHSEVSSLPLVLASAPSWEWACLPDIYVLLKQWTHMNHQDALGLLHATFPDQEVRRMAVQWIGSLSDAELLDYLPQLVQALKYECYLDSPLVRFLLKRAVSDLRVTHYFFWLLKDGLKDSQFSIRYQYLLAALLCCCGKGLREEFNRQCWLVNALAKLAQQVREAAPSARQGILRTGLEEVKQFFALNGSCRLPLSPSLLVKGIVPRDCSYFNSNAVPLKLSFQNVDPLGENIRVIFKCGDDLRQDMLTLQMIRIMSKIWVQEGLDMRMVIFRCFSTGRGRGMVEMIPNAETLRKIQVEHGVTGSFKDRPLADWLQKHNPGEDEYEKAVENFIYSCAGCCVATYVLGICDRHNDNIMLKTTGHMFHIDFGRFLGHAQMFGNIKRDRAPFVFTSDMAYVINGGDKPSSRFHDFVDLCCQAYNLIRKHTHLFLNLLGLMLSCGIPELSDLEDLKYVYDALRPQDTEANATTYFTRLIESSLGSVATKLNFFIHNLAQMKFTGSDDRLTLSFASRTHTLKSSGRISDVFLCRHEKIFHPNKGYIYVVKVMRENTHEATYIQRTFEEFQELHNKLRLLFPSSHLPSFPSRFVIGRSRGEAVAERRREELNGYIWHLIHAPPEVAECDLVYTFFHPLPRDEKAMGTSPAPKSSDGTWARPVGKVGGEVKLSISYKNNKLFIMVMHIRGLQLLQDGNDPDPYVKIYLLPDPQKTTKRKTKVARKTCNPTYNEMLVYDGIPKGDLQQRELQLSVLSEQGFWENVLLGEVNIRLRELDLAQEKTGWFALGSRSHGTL

PIK3CA = PIK3CA (Homo sapiens, UniProt P42336)
PIM1 = PIM1 (Homo sapiens, UniProt P11309)
Chain of PIM1 (P11309 whole entry): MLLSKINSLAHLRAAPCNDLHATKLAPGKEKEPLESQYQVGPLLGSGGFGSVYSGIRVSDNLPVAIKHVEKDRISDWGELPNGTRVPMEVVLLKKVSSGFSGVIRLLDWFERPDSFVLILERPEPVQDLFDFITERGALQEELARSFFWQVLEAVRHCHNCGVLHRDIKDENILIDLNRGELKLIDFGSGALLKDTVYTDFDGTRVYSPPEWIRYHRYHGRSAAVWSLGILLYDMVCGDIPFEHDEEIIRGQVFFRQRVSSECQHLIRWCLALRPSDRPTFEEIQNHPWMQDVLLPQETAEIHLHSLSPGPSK

PLK3 = PLK3 (Homo sapiens, UniProt Q9H4B4)
PRKCE = PRKCE (Homo sapiens, UniProt Q02156)
Chain of PRKCE (Q02156 whole entry): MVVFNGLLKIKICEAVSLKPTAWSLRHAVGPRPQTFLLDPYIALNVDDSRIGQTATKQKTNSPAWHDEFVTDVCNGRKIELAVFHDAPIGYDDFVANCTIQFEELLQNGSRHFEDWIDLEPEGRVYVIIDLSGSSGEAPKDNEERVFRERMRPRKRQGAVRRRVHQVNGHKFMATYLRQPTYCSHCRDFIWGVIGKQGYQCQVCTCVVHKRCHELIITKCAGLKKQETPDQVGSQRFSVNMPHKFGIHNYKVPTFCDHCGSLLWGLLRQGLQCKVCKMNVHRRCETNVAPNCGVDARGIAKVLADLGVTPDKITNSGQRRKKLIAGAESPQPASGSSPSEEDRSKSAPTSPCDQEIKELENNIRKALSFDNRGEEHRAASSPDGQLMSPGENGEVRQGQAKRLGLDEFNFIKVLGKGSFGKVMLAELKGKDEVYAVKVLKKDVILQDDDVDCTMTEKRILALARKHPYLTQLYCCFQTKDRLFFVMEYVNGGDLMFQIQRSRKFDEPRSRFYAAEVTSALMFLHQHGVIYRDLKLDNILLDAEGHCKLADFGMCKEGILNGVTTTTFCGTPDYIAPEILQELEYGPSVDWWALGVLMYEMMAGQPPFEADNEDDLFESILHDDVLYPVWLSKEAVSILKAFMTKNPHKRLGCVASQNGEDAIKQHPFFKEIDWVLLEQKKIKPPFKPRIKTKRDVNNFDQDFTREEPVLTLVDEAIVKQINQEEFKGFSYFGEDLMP

PRKCI = PRKCI (Homo sapiens, UniProt P41743)
Chain of PRKCI (P41743 whole entry): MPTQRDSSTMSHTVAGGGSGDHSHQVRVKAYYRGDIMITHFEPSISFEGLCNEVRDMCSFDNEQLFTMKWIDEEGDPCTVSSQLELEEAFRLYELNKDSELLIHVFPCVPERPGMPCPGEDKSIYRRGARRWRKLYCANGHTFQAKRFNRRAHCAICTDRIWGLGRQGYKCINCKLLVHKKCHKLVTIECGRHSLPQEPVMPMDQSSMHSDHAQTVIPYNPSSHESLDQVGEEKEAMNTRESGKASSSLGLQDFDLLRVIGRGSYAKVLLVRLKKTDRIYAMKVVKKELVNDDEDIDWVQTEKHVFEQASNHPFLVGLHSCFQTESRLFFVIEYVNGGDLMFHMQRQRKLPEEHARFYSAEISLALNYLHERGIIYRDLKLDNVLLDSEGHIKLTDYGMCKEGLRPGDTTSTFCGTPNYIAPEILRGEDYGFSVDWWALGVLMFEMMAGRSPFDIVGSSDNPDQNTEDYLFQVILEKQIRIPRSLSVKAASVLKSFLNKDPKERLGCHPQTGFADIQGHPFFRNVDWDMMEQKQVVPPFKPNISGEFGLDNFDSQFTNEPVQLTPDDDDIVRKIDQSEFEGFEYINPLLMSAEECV

TEC = TEC (Homo sapiens, UniProt P42680)
TTK = TTK (Homo sapiens, UniProt P33981)
[1] = biological target: T4, TYK2(JH1domain-catalytic) (Homo sapiens, UniProt P29597)
T4 construct: JH1domain-catalytic

[2] = biological target: T5, TYK2(JH2domain-pseudokinase) (Homo sapiens, UniProt P29597)
T5 construct: JH2domain-pseudokinase

In the case of `COc1cc2c(cn1)N(C)C(=O)[C@@H](NC(=O)c1nc3n(n1)[C@H](c1ccccc1)CC3)CC2` [GNE684, (S)-N-((S)-7-methoxy-1-methyl-2-oxo-2,3,4,5-tetrahydro-1H-pyrido[3,4-b]azepin-3-yl)-5-phenyl-6,7-dihydro-5H-pyrrolo[1,2-b][1,2,4]triazole-2-carboxamide], the remaining binding at 10 µM (AXL) was 96%, the remaining binding at 10 µM (CAMK2G) was 100% and the remaining binding at 10 µM (CDK9) was 97%. It also gave a remaining binding at 10 µM (DCAMKL1) of 67%, a remaining binding at 10 µM (EGFR(L858R)) of 100% and a remaining binding at 10 µM (EPHA4) of 94%. For the same compound, the remaining binding at 10 µM (ERBB3) was 96%, the remaining binding at 10 µM (HASPIN) was 100% and the remaining binding at 10 µM (MET) was 73%. It also gave a remaining binding at 10 µM (MKK7) of 98%, a remaining binding at 10 µM (MLK2) of 72% and a remaining binding at 10 µM (PDGFRA) of 100%. The remaining binding at 10 µM (PIK3C2B) was 93%, the remaining binding at 10 µM (PIK3CA) was 100% and the remaining binding at 10 µM (PIM1) was 100%. It also gave a remaining binding at 10 µM (PLK3) of 89%, a remaining binding at 10 µM (PRKCE) of 88% and a remaining binding at 10 µM (PRKCI) of 95%. The remaining binding at 10 µM (TEC) was 100%, the remaining binding at 10 µM (TTK) was 100% and the remaining binding at 10 µM [1] was 100%. The remaining binding at 10 µM [2] was 100%.

Source: publication PMC7206119, “RIP1 inhibition blocks inflammatory diseases but not tumor growth or metastases” (Cell Death and Differentiation, 2019)
